Results on 15 molecules are retold here after publication PMC10664828, “Tetrazole and acylsulfonamide bioisosteric replacements of the carboxylic acid in a dual MCL-1/BCL-xL inhibitor are tolerated” (RSC Advances, 2023).

The target in data set [1] is T1, MCL-1 (Homo sapiens, UniProt Q07820).
T1 construct: His6-MBP (cleaved yes); made in house; host or cells: E. coli
As to the kind of experiment: Fluorescence polarization competition assay (FPCA) with FITC-Bak, MCL-1. It counts as binding. The note with it: for MCL-1 inhibition in FPCA (in words): cell-free MCL-1 binding assay; for fold better MCL-1 affinity than parent compound 1: relative to compound 1. The method, then:
The tagged protein was initially purified from the crude cell lysate by IMAC chromatography (GE Healthcare Life Sciences), and after dialysis to remove the imidazole the affinity tag was cleaved using PreScission Protease (GE Healthcare Life Sciences). A Sephacryl S-200 size exclusion column was used as a final purification step before the protein was concentrated with a 10 000 MWCO centrifugal filter concentrator (Millipore).
(§1) Fluorescence polarization experiments were conducted using a BMG PHERAstar FS multimode microplate reader equipped with two PMTs for simultaneous measurements of the perpendicular and parallel fluorescence emission. The assays were performed in black polypropylene 384-well microplate (Costar) with a final volume of […]. […] For the fluorescence polarization competition titrations, an equation derived by Nikolovska-Coleska et al.[16] was used to calculate the Ki from the IC50 data. All experiments were run in three biological replicates, each in triplicate.

The target of data set [2] is T2, BCL-xL (Homo sapiens, UniProt Q07817).
T2 construct: (or 15 nM Bcl-xL^2-212 (R&D Systems)); b80 says SinBiological
As to the kind of experiment: Fluorescence polarization competition assay (FPCA) with FITC-Bak, BCL-xL. It counts as binding. As to conditions: for Ki: read-out: K i (BCL-xL). The method, then: BCl-xL was purchased from SinBiological.
as §1

Data set [3] relates to HL60 cells. The experiment in a line: CellTiter-Blue cell viability assay. It counts as cell-based. As to conditions: Homo sapiens. The method, then:
Cell viability studies were conducted using the CellTiter-Blue® (Promega, Madison, WI) assay. Briefly, HL60 cells, were seeded in a 96-well plate and maintained at 37 °C with 5% CO2 for 24 h. The cells were then exposed to test compounds at 11 concentrations ranging from 0 to 20 mM. After 72 h, cell viabilities were then determined according to the manufacturer's instructions.

Data set [4] has as its target T1, MCL-1. As to conditions: Table 2; FPCA; read-out: K i (MCL-1); cited from earlier work.
Data set [5] concerns the target T2, BCL-xL. As to conditions: Table 2; FPCA; read-out: K i (BCL-xL); cited from earlier work.
For data set [6] the following is noted: cited from earlier work.
The mark [7] stands for this setting: Table 2, FPCA, read-out: K i (MCL-1).
[8] abbreviates: HL-60, 72 h, 10% FBS, 72 h, read-out: HL60 IC50.
[9] abbreviates: HL-60, 72 h, […] FBS, 72 h, read-out: HL60 IC50.
Where [10] appears, read: Table 1, FPCA, 100 nM Mcl-1 172-327, 10 nM FITC-Bak, read-out: K i.

Read-outs that look alike come from different tables or passages of the source. A value given as a limit tells only on which side of the number the result lay.

T1 sequence (Q07820 172-327): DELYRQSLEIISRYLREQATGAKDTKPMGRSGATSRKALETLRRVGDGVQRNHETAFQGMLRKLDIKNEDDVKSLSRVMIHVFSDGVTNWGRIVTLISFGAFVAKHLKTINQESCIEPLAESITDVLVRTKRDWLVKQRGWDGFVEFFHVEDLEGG
T2 sequence (Q07817 2-212): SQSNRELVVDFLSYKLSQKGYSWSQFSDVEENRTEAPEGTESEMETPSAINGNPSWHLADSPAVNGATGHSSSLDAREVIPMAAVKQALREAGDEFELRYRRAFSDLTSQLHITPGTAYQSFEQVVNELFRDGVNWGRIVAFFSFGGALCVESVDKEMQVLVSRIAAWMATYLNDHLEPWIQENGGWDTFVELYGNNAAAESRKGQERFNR

Consider `Cc1cc(Oc2ccc(S(=O)(=O)N(Cc3ccccc3)c3ccc(O)c(C(=O)NS(=O)(=O)c4ccc(NCC5CCOCC5)c([N+](=O)[O-])c4)c3)cc2)cc(C)c1Cl` [Compound 29, 5-(N-Benzyl-4-(4-chloro-3,5-dimethylphenoxy)phenylsulfonamido)-2-hydroxy-N-((3-nitro-4-(((tetrahydro-2H-pyran-4-yl)methyl)amino)phenyl)sulfonyl)benzamide], for which the results for the Ki in data set [1] (setting [7]) and in data set [2] were 1.01 ± 0.08 µM and 1.54 ± 0.23 µM, respectively.
For `O=C(NS(=O)(=O)c1ccc(NCC2CCOCC2)c([N+](=O)[O-])c1)c1ccc(N(Cc2ccccc2)S(=O)(=O)c2ccc(Oc3ccccc3)cc2)cc1O` [Compound 7c, 4-(N-Benzyl-4-phenoxyphenylsulfonamido)-2-hydroxy-N-((3-nitro-4-(((tetrahydro-2H-pyran-4-yl)methyl)amino)phenyl)sulfonyl)benzamide], the results for the Ki in data set [1] (setting [7]) and in data set [2] were 1.23 ± 0.15 µM and 1.05 ± 0.14 µM, respectively.
Consider `Cc1cc(Oc2ccc(S(=O)(=O)N(Cc3ccccc3)c3ccc(O)c(C(=O)O)c3)cc2)cc(C)c1Cl` [Compound 27, 5-(N-Benzyl-4-(4-chloro-3,5-dimethylphenoxy)phenylsulfonamido)-2-hydroxybenzoic acid], for which the Ki in data set [1] (setting [7]) turned out to be 1.4 ± 0.47 µM; in data set [2] (Table 2, FPCA, 15 nM Bcl-xL 2-212, 10 nM FITC-Bak), 1.82 ± 0.23 µM.
Regarding `Cc1cc(Oc2ccc(S(=O)(=O)N(Cc3ccccc3)c3ccc(C(=O)O)c(O)c3)cc2)cc(C)c1Cl` [Compound 17cd, reference compound], the IC50 worked out at 53.2 µM in data set [3] (setting [8]); 5.79 µM in data set [3] (setting [9]); 18.5 µM in data set [3] (HL-60, text of introduction, read-out: IC50, viability of human leukemia HL60 cells).
Regarding `Cc1cc(Oc2ccc(S(=O)(=O)N(Cc3ccccc3)c3ccc(C(=O)NS(=O)(=O)c4ccc(NCC5CCOCC5)c([N+](=O)[O-])c4)c(O)c3)cc2)cc(C)c1Cl` [Compound 7d, 4-(N-Benzyl-4-(4-chloro-3,5-dimethylphenoxy)phenylsulfonamido)-2-hydroxy-N-((3-nitro-4-(((tetrahydro-2H-pyran-4-yl)methyl)amino)phenyl)sulfonyl)benzamide], the figures for the Ki in data set [1] (setting [7]) and in data set [2] were 0.8 ± 0.07 µM and 1.82 ± 0.18 µM, respectively. The IC50 was above 120 µM in data set [3] (setting [8]) and 7.45 µM in data set [3] (setting [9]).
Turning to `Cc1cc(Oc2ccc(S(=O)(=O)N(CC(C)C)c3ccc(O)c(C(=O)O)c3)cc2)cc(C)c1Cl` [Compound 6e-OH-5, reference compound], the IC50 in data set [3] (setting [8]) is above 120 µM; in data set [3] (setting [9]), 9.82 µM. The Ki in data set [4] is 0.778 ± 0.041 µM; in data set [5], 2.19 ± 0.19 µM.
On to `COC(=O)c1ccc(N(CC(C)C)S(=O)(=O)c2ccc(Oc3ccccc3)cc2)cc1O` [Compound 2, Methyl 2-hydroxy-4-(N-isobutyl-4-phenoxyphenylsulfonamido)benzoate], for which the “MCL-1 inhibition in FPCA (in words)” value in data set [1] was “inactive”. Also, in data set [1] (read-out: K i), the Ki was above 500 µM. The half-maximal inhibitory concentration (IC50) in data set [3] (setting [8]) was determined as 76.4 µM; in data set [3] (setting [9]) it was 68.1 µM.
For `CC(C)CN(c1ccc(C(=O)NO)c(O)c1)S(=O)(=O)c1ccc(Oc2ccccc2)cc1` [Compound 4, N,2-Dihydroxy-4-(N-isobutyl-4-phenoxyphenylsulfonamido)benzamide], in data set [1] (setting [10]), the Ki turned out to be 70.6 ± 5.8 µM. Also, the pKa in data set [6] (value of the functional group) is recorded as 8–9.
For `CC(C)CN(c1ccc(C#N)c(O)c1)S(=O)(=O)c1ccc(Oc2ccccc2)cc1` [Compound 8, N-(4-Cyano-3-hydroxyphenyl)-N-isobutyl-4-phenoxybenzenesulfonamide], in data set [1], the “MCL-1 inhibition in FPCA (in words)” value is “no inhibition”. Also, in data set [1] (read-out: K i), the Ki was above 500 µM. Besides, the pKa entry in data set [6] (cyanophenol, no reference given) is “about 7”.
As to `CS(=O)(=O)NC(=O)c1ccc(N(Cc2ccccc2)S(=O)(=O)c2ccc(Oc3ccccc3)cc2)cc1O` [Compound 7a, 4-(N-Benzyl-4-phenoxyphenylsulfonamido)-2-hydroxy-N-(methylsulfonyl)benzamide], the Ki in data set [1] (setting [10]) came out at 2.94 ± 0.35 µM; in data set [1] (setting [7]), 2.94 ± 0.35 µM; in data set [2] it was 7.22 ± 1.07 µM. Moreover, in data set [1], the “fold better MCL-1 affinity than parent compound 1” value was at least 2 fold. In addition, the “fold weaker BCL-xL inhibition than parent compound 17cd” value in data set [2] (relative to 17cd) was “about 4 fold”.
With `CC(C)CN(c1ccc(-c2cc(=O)[nH]o2)cc1)S(=O)(=O)c1ccc(Oc2ccccc2)cc1` [Compound 6, N-Isobutyl-N-(4-(3-oxo-2,3-dihydroisoxazol-5-yl)phenyl)-4-phenoxybenzenesulfonamide], the “MCL-1 inhibition in FPCA (in words)” value in data set [1] was “no inhibition”. The Ki in data set [1] (read-out: K i) was above 500 µM. Moreover, the pKa in data set [6] (value of the functional group) is 4–5.
Take `CC(=O)OCOC(=O)c1ccc(N(CC(C)C)S(=O)(=O)c2ccc(Oc3ccccc3)cc2)cc1O` [Compound 3, Acetoxymethyl 2-hydroxy-4-(N-isobutyl-4-phenoxyphenylsulfonamido)benzoate]: in data set [1], the “MCL-1 inhibition in FPCA (in words)” value is “inactive”. Also, in data set [1] (read-out: K i), the Ki is above 500 µM. Besides, the IC50 in data set [3] (setting [8]) is above 120 µM; in data set [3] (setting [9]), 46.4 µM.
Regarding `CC(C)CN(c1ccc(C(=O)O)c(O)c1)S(=O)(=O)c1ccc(Oc2ccccc2)cc1` [Compound 1], the IC50 is above 120 µM in data set [3] (setting [8]) and 18.5 µM in data set [3] (setting [9]).
`CC(C)CN(c1ccc(-c2nn[nH]n2)cc1)S(=O)(=O)c1ccc(Oc2ccccc2)cc1` [Compound 5, N-(4-(2H-Tetrazol-5-yl)phenyl)-N-isobutyl-4-phenoxybenzenesulfonamide]: the Ki in data set [1] (setting [10]) was 3.29 ± 0.26 µM. Further, the “fold better MCL-1 affinity than parent compound 1” value in data set [1] is given as at least 2 fold. Further, the IC50 in data set [3] (setting [8]) was above 120 µM; in data set [3] (setting [9]), 15.7 µM. For the same molecule, the pKa in data set [6] (value of the functional group) is given as 4–5.
On to `O=C(NS(=O)(=O)c1ccccc1)c1ccc(N(Cc2ccccc2)S(=O)(=O)c2ccc(Oc3ccccc3)cc2)cc1O` [Compound 7b, 4-(N-Benzyl-4-phenoxyphenylsulfonamido)-2-hydroxy-N-(phenylsulfonyl)benzamide], for which the results for the Ki in data set [1] (read-out: K i) and in data set [2] were 1.95 ± 0.22 µM and 2.34 ± 0.22 µM, respectively. Also, the “fold better MCL-1 affinity than parent compound 1” value in data set [1] was at least 2 fold. For the same molecule, the “fold improvement in BCL-xL inhibitory activity” value in data set [2] (relative to 7a) was 3 fold.
